We go through three molecules from patent US4460576A, “Peptide and hormone agent containing the same as effective ingredient” (Kaken Pharmaceutical Co., Ltd., priority 1982, dated 1984).

Test [1] relates to Male Wistar rats. The test is described as follows: GH-releasing activity of [Gln^16 ]--GH--RH in vivo, plasma GH by RIA (Pharmacological Test Example 3). On the set-up: species or system rat. Conditions: for GH Concentration, individual rats / GH Concentration Mean ± S.E.: plasma; for GH Concentration, individual rats: rats G, H, I, J, K, L in order; for GH Concentration Mean ± S.E.: procedure of Test Example 2, six rats G to L. The protocol:
Male Wistar rats of 10 weeks old were used. The rats were anesthetized with pentobarbital administered intraperitoneally (i.p.) in a dosage of 50 mg./kg. and fixed. Silastic tube (Dow Corning 0.020 in I.D., by 0.037 in O.D.) cannula of 3.5 cm was inserted to the heart side of right jugular vein in the rat. In the rat with chronic vein-cannula in plant, the other side of the cannula was taken out by 3 cm. from backside of neck and fixed on outer layer of skin.
From the cannula was injected 0.5 ml. of 20 units/ml. heparin, and then the cannula was pluged with a stainless-steel wire stopper. The rats were subjected to injecting of GH--RH and blood-gathering under non-anesthetic condition on the next day. Chlorpromazine hydrochloride was administered i.p. before 4 hrs. of injection in a dosage of 2 mg./kg. Four rats (D to G) received injection from the cannula of 440 μg./kg. of GH--RH obtained from salmon in Example 1. Three rats (A to C) received physiological saline as a control.
From each rat, 0.5 ml. of blood was gathered before 15 minutes of injection and after 15, 30, 60, 120 and 180 minutes of injection.
The gathered blood was centrifuged at 2,000×g for 10 minutes. For measuring GH-releasing activity, the supernatant (plasma) was assayed by means of a radio immuno assay (hereinafter referred to as "RIA") according to a double antibody method (see C. A. Birge et al Endocrinology 81, p.195 (1967)). The RIA of rat GH was carried out by employing NIH kit. The results are shown in Table 4 and FIG. 8 in which symbols A to G described in Table 4 correspond to those described in FIG. 8.
The procedure of Pharmacological Test Example 2 was repeated except that six rats were used, respectively, as to the group receiving [Gln^16 ]--GH--RH and as to the group receiving physiological saline and the blood-gathering was carried out before 15 minutes of injection and after 15, 30, 60, 120, 180, 240 and 300 minutes, respectively, of injection.

In test [2] the test system is anterior pituitaries obtained from male Wistar Rats. The test is described as follows: GH release from pieces of rat anterior pituitaries on a column, radioimmunoassay (Pharmacological Test Example 1). The format is cell-based. On the procedure:
Small pieces of anterior pituitaries obtained from male Wistar Rats were placed on top of a column being an injection cylinder having one […] diameter packed with 0.3 to 0.5 ml. of Sephadex G 25 equilibrated with a Krebs-Ringer buffer solution containing 0.1% calf serum at a flow rate of 0.5 ml./min. On the column were chromatographed 1 ml. of a control solution (a Klebs-Ringer buffer solution), 1 ml. of 2 μg./ml. solution of TRH and 1 ml. of 2 μg./ml. solution of the GH--RH obtained in Example 1 in that order. The column effluent was collected in 1 ml.-fractions and each fraction was analyzed by means of a radioimmunoassay with an anti-rat GH antibody (NIH standard) to determine an amount of the released rat GH in the assay.

For test [3] the following is noted: R. Guillemin et al, Science, 218, p.585 (1982); cited from earlier work.

Several values for one entry are separate records, joined by “and”; a condition that tells them apart may be missing. Equal values may be shown once. Positions of bridges follow the written chain, without caps; N, C: chain ends. Residues, ends and D or L forms follow the SMILES beside them. No end group written: not given here.

Turning to `CSCC[C@@H]1NC(=O)[C@@H](NC(=O)[C@H](CCCNC(=N)N)NC(=O)[C@H](CCSC)NC(=O)[C@@H](NC(=O)[C@@H](N)CC(=O)O)[C@@H](C)O)CSSC[C@@H](C(=O)N[C@@H](Cc2c[nH]c3ccccc23)C(=O)N[C@@H](CCC(N)=O)C(=O)N[C@H](C(=O)O)C(C)C)NC(=O)[C@@H]2CCCN2C(=O)[C@H](CCCNC(=N)N)NC(=O)[C@H](Cc2ccc(O)cc2)NC(=O)[C@H](C(C)C)NC(=O)[C@H](CCCNC(=N)N)NC(=O)CNC(=O)[C@H](C(C)C)NC1=O` [[Gln^16]--GH--RH] (H-DTMRCMVGRVYRPCWQV-OH; disulfide 5-14), the “increase of GH concentration in plasma compared with the control group” value in test [1] (FIG. 9) is “evident increase of GH concentration in plasma was observed from 30 to 60 minutes after injection”. The “GH Concentration, individual rats” value was 10.04 μIU/ml. and 9.76 μIU/ml. and 7.20 μIU/ml. and 11.52 μIU/ml. and 7.64 μIU/ml. and 8.08 μIU/ml in test [1] (15 min after injection); 9.80 μIU/ml. and 7.72 μIU/ml. and 34.84 μIU/ml. and 8.36 μIU/ml. and 30.68 μIU/ml. and 57.80 μIU/ml in test [1] (30 min after injection); 56.52 μIU/ml. and 47.00 μIU/ml. and 63.40 μIU/ml. and 115.36 μIU/ml. and 21.48 μIU/ml. and 44.88 μIU/ml in test [1] (60 min after injection); 22.48 μIU/ml. and 29.32 μIU/ml. and 23.56 μIU/ml. and 18.08 μIU/ml. and 13.24 μIU/ml. and 11.52 μIU/ml in test [1] (120 min after injection); 10.08 μIU/ml. and 9.72 μIU/ml. and 10.56 μIU/ml. and 10.24 μIU/ml. and 9.48 μIU/ml. and 8.20 μIU/ml in test [1] (180 min after injection); 25.84 μIU/ml. and 8.36 μIU/ml. and 30.00 μIU/ml. and 36.48 μIU/ml. and 7.80 μIU/ml. and 11.52 μIU/ml in test [1] (240 min after injection). Further, the “GH Concentration, individual rats” value in test [1] (300 min after injection) was 12.36 μIU/ml. and 12.08 μIU/ml. and 10.32 μIU/ml. and 16.64 μIU/ml. and 12.96 μIU/ml. and 10.76 μIU/ml; in test [1] (-15 min (before injection)) it was 10.52 μIU/ml. and 9.36 μIU/ml. and 8.56 μIU/ml. and 6.32 μIU/ml. and 7.20 μIU/ml. and 8.96 μIU/ml. For the same molecule, the “GH Concentration Mean ± S.E.” value in test [1] (15 min after injection) worked out at 9.04 ± 0.68 μIU/ml; in test [1] (30 min after injection), 24.87 ± 8.19 μIU/ml; in test [1] (60 min after injection), 58.11 ± 12.84 μIU/ml; in test [1] (120 min after injection), 19.70 ± 2.75 μIU/ml; in test [1] (180 min after injection) it was 9.71 ± 0.34 μIU/ml; in test [1] (240 min after injection), 20.00 ± 5.04 μIU/ml. Also, the “GH Concentration Mean ± S.E.” value in test [1] (300 min after injection) stood at 12.52 ± 0.92 μIU/ml; in test [1] (-15 min (before injection)), 8.49 ± 0.62 μIU/ml. The GH-releasing effect entry in test [1] (rats in vivo) is recorded as “has a GH-releasing effect”.
Regarding thyrotropic releasing hormone [TRH], the “Amount of Released Rat GH” value in test [2] (1 ml. of 2 μg./ml. solution on the column, RIA with anti-rat GH antibody) was 300 ng/mL. In addition, the “releasing manner of GH” value in test [2] (elution profile of released GH) is reported as “broad”.
Take “hpGRF: GH-releasing factor isolated from human pancreatic cancer (YADAIFTNSYRKVLGQLSARKLLQDIMSRQQGESNQERGARARL; ends and bridges not checked; UniProt P01286 32-75, looked up)”: the “time after injection at which increase of GH is shown” value in test [3] was 5 min.
